Reference: ChEMBL document CHEMBL5604062, “ASAP - ZIKV NS2B-NS3 protease fluorescence dose response” (2024)
Where “and” joins values, the source holds several entries; their conditions need not be identical. Equal entries are not always repeated.

target: Nonstructural protein 3 (Zika virus, UniProt A0A024AXB9); test: Functional biochemical assay to identify treatments for viral infectious disease that targets Zika NS2B-NS3 protease. Utilizing a direct enzyme activity measurement method, reading the fluorescence intensity is used to characterize the relative potency of inhibitors as IC50.; parameters: species or system PRVABC59
Sequence (A0A024AXB9 whole entry): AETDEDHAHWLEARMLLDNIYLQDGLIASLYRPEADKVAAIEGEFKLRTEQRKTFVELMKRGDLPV

IC50 | SMILES
> 99.5 µM | Cc1cc(C(=O)Nc2cccc(CN)c2)c2nc(C)n(C)c2n1
> 99.5 µM | CCn1c(=O)c(N2CC[C@H](NC(=O)NC3CC3)C2)nc2ccccc21
9.14 µM | O=C(Nc1ccc2c(c1)CNC2)c1c(Br)cc(Cl)c2[nH]ncc12
> 99.5 µM | NCc1nc(CNC(=O)c2cc(Cl)cc(NC(=O)OCc3ccccc3)c2)cs1
0.356 µM | CC(C)(C)c1cc(Br)cc(C(=O)Nc2ccc3c(c2)CNC3)c1
> 99.5 µM | CSCc1nnc(SCc2ccncc2)o1
> 99.5 µM | O=C(O)c1cc(Cl)ccc1S(=O)(=O)N[C@H]1CCN(Cc2ccccc2)C2(CC2)C1
> 99.5 µM | c1cnc2[nH]cc(C3CCN(Cc4c[nH]c5cnccc45)CC3)c2c1
> 99.5 µM | O=C(Cn1ccnc(N2CC[C@H](CO)C2)c1=O)NCc1cccs1
0.405 µM and 0.264 µM | CC(C)(c1nc2c(C(=O)Nc3ccc4c(c3)CNC4)cc(F)cc2[nH]1)S(C)(=O)=O
> 99.5 µM | Cn1nc(C(=O)Nc2cccc(CN)c2)cc1C1CC1
> 99.5 µM | CCn1c(=O)c(N2CC[C@H](CO)C2)nc2cc(C(=O)NCc3ccccc3)ccc21
> 99.5 µM | NCc1cccc(NC(=O)[C@]2(NC(=O)OCc3ccccc3)COc3cc(Br)ccc32)c1
> 99.5 µM | COC(=O)c1cc(Cl)ccc1NS(=O)(=O)c1ccc(Oc2ccccc2Cl)nc1
> 25 µM | COCCc1ccnc(NC(=O)c2cc(C3CC3)n(C)c2C)c1
> 99.5 µM | CS(=O)(=O)c1ccc(NC(=O)c2cc(Cl)cc(NC(=O)OCc3ccccc3)c2)cc1
> 0.782 µM | O=Cc1ccc(N2CCC(C(=O)N3CCC(N4CCc5ccccc5C4)CC3)CC2)cc1
28.9 µM and 28.2 µM | NCc1cccc(NC(=O)[C@H](NC(=O)Cc2ccccc2)c2ccc(OCc3ccccc3)cc2)c1
28.8 µM | COc1ccc(F)cc1-c1ccc(S(=O)(=O)Nc2ccc(Cl)cc2C(=O)O)cc1
0.977 µM | Nc1noc2cccc(C(=O)Nc3ccc4c(c3)CNC4)c12
> 99.5 µM | Cc1cc(C(=O)Nc2cccc(CN)c2)cc(O)n1
> 99.5 µM | NC[C@H]1C[C@@H](NC(=O)c2cc(Cl)ccc2NS(=O)(=O)c2ccc(Oc3ccccc3Cl)cc2)C1
15 µM and > 25 µM | O=C(Nc1ccc2c(c1)CNC2)c1ccc2scnc2c1
> 99.5 µM | NCc1cccc(NC(=O)[C@@H](NC(=O)OCc2ccccc2)c2ccc(OCc3ccccn3)cc2)c1
65.4 µM | NCc1cccc(NC(=O)[C@H](NS(=O)(=O)c2ccc(Oc3ccccc3Cl)cc2)c2ccc(OCc3ccccc3)cc2)c1
> 99.5 µM | Cc1n[nH]cc1-c1ccc([C@@H](NC(=O)OCc2ccccc2)C(=O)Nc2cccc(CN)c2)cc1

IC50 | SMILES
> 99.5 µM | Cc1cc(N2CCC(NS(=O)(=O)c3ccc(Cl)cc3C(=O)O)CC2)nc(C)n1
> 25 µM | O=C1Cc2c(cccc2C(=O)N[C@H]2CCC[C@@H](C(=O)NC3CC3)C2)N1
> 25 µM | CN1CCC([C@H]2CCCN(C(=O)Nc3ccc4c(c3)CNC4)C2)CC1
> 99.5 µM | NCc1cccc(NC(=O)c2cc(C3CC3)nc3c(Cl)cnn23)c1
> 99.5 µM | CCC1(NC(=O)Cn2ccnc(N3CC[C@@H](CO)C3)c2=O)CC1
> 25 µM | CC(C)n1cnc2cc(C(=O)Nc3ccc4c(c3)CNC4)ccc21
> 99.5 µM | CC(C)[C@H](CC(=O)O)NC(=O)c1cc(Cl)cc(NC(=O)OCc2ccccc2)c1
1.22 µM | O=C1COc2c(cccc2C(=O)Nc2ccc3c(c2)CNC3)N1
6.67 µM | NCc1cc(NC(=O)c2cc(Cl)cc(NC(=O)OCc3ccccc3)c2)cc(C2CC2)c1
> 99.5 µM | Cn1nc2c(c1NC(=O)c1cc(Cl)cc(NC(=O)OCc3ccccc3)c1)CCNC2
43.9 µM | NCc1cccc(NC(=O)c2cc(NC(=O)OCc3ccccc3)cc(Cl)c2Cl)c1
> 99.5 µM | Cc1noc(C)c1C(=O)N[C@@H](C(=O)Nc1cccc(CN)c1)c1ccc(OCc2ccccc2)cc1
> 99.5 µM | CCOC1CC(S(=O)(=O)N[C@H](C(=O)Nc2cccc(CN)c2)c2ccc(OCc3ccccc3)cc2)C1 (some centres undefined)
> 99.5 µM | O=C(O)COc1cc2c(cc1Cc1c[nH]c3ccc(Cl)cc13)OCO2
0.039 µM and 0.024 µM | O=C(Nc1ccc2c(c1)CNC2)c1cc(F)cc2[nH]c(-c3ccc(F)cc3O)nc12
> 25 µM | Cc1cc(C(F)(F)F)cc(C(=O)Nc2ccc3c(c2)CNC3)n1
> 25 µM | Cc1c(C(=O)Nc2cc(-c3cccnc3)ccn2)cc(C2CCCC2)n1C
0.204 µM | O=C(Nc1ccc2c(c1)CNC2)c1cccc2nc(O)ccc12
> 99.5 µM | O=C(O)[C@@H]1CCCC[C@H]1NS(=O)(=O)c1ccc(Oc2ccccc2Cl)cc1
> 99.5 µM | CC1(C)OB(c2cccc(F)c2CNC2CCCC2)OC1(C)C
24.4 µM | O=C(Nc1ccc2c(c1)CNC2)c1cc2ccccc2[nH]1
> 25 µM | O=C(Nc1cc([C@H]2CCOC2)ccn1)c1cc(F)cc2[nH]ccc12
> 99.5 µM | O=C(Nc1cc(Cl)cc(C(=O)N[C@H](c2nn[nH]n2)C2CCNCC2)c1)OCc1ccccc1
> 99.5 µM | c1nnc(SCCCSc2nncs2)s1
> 99.5 µM | CNC(=O)[C@H](Nc1cc(Cl)cc(NC(=O)OCc2ccccc2)c1)c1ccc(-c2nn[nH]n2)cc1
2.58 µM | COc1ncc(Cl)cc1C(=O)Nc1ccc2c(c1)CNC2

IC50 | SMILES
36.7 µM | N=C(N)NCCc1ccc(NC(=O)C(=O)/C=C/c2ccc(N)cc2)cc1
> 99.5 µM | Cc1cc(-c2cccc([C@H](NC(=O)OCc3ccccc3)C(=O)Nc3cccc(CN)c3)c2)[nH]n1
66.3 µM | O=C(Nc1ccc2c(c1)CNC2)c1cncc(N2CCOCC2)c1
52.9 µM | NCc1cccc(NC(=O)c2cc(Cl)cc(CN3CCOCC3)c2)c1
> 99.5 µM | O=S(=O)(Nc1cccc(-c2nnn[nH]2)c1)c1cc(Cl)cc2c1OCC2
> 99.5 µM | CC(C)CNC(=O)c1cc(Cl)ccc1C=Cc1ccc(Oc2ccccc2Cl)cc1
> 99.5 µM | Cn1cc(Nc2ccc(S(=O)(=O)Nc3ccc(Cl)cc3C(=O)O)cn2)cn1
> 25 µM | COc1ccc([C@H]2C[C@H](C)CN2C(=O)Nc2ccc3c(c2)CNC3)cc1
> 99.5 µM | NC1(c2cc(C(F)(F)F)ccc2NS(=O)(=O)c2ccc(Oc3ccccc3Cl)cc2)CC1
> 99.5 µM | Cc1ncc(C(=O)Nc2cccc(CN)c2)cc1NC(=O)OCc1ccccc1
> 99.5 µM | CN(C)[C@H]1CCc2cc(-c3cccc(N4CCNC4=O)c3)ccc2NC1
> 99.5 µM | NCC12CC(NC(=O)c3cc(Cl)cc(NC(=O)OCc4ccccc4)c3)(CCO1)C2
> 99.5 µM | Cc1ccc(C(=O)Nc2cccc(CN)c2)cc1NC(=O)Cc1ccncc1
0.37 µM | O=C(Nc1ccc2c(c1)CCNCC2)c1cc(Cl)cc2[nH]ncc12
48 µM | O=C(O)c1cc(Cl)ccc1S(=O)(=O)Nc1ccc(Oc2ccccc2Cl)cc1
> 99.5 µM | Cc1nc(COc2ccc([C@@H](NC(=O)OCc3ccccc3)C(=O)Nc3cccc(CN)c3)cc2)cs1
> 99.5 µM | CN(C)C(=O)[C@@H](NC(=O)OCc1ccccc1)c1ccc(OCc2ccccc2)cc1
> 99.5 µM | CCOCC(=O)N1CCC([C@H](NC(=O)OCc2ccccc2)C(=O)Nc2cccc(CN)c2)CC1
0.124 µM | O=C(NCCCn1ccnc1)[C@H](Nc1ccc2c(c1)CNC2)c1cc(Cl)cc(C2CC2)c1
10.6 µM | N[C@H]1CCOc2ccc(NC(=O)c3cc(Cl)cc(NC(=O)OCc4ccccc4)c3)cc21
> 99.5 µM | CCc1nc(C)c(C(=O)Nc2cccc(-c3nnn[nH]3)c2)s1
> 99.5 µM | c1cc2sccc2c(N2CCN(Cc3ccc4cn[nH]c4c3)CC2)n1
> 99.5 µM | COCc1cc(Cl)cc(S(=O)(=O)Nc2cccc(-c3nnn[nH]3)c2)c1
48.5 µM | CCCNC(=O)[C@H](Nc1cccc(-c2nn[nH]n2)c1)c1cc(Cl)cc(NC(=O)OCc2ccccc2)c1
2.51 µM | O=C(Nc1ccc([C@H]2CCNC2)cc1)c1cc(Cl)cc2[nH]ncc12
10.4 µM | CSc1cc(Cl)cc(C(=O)Nc2cccc(CN)c2)c1

IC50 | SMILES
> 99.5 µM | CCn1c(=O)c(N2CCC[C@H]2c2noc(C)n2)nc2ccccc21
> 99.5 µM | CC(C)(C#N)c1cc(C(=O)Nc2cccc(CN)c2)cc(C(F)(F)F)c1
> 25 µM | O=C(Nc1ccc2c(c1)CNC2)c1c(Cl)ccc2c1OCO2
> 99.5 µM | C[C@@H](NCc1c[nH]c2ccccc12)c1cscn1
> 99.5 µM | CNC(=O)[C@H](Nc1cccc(-c2nnn[nH]2)c1)c1cc(Cl)cc(C2CC2)c1
> 99.5 µM | NCc1cccc(NC(=O)C2(CNC(=O)OCc3ccccc3)CCCC2)c1
0.165 µM | O=C(Nc1ccc2c(c1)CNC2)c1cc(F)cc(/C=C/c2ccccc2)c1
> 99.5 µM | N#Cc1ccc(S(=O)(=O)CCn2nc(-c3ccco3)oc2=O)cc1
93.7 µM | NCc1ccnc(CNC(=O)[C@@H](NC(=O)OCc2ccccc2)c2ccc(OCc3ccccc3)cc2)c1
> 99.5 µM | NCc1ccc(Oc2ccc(S(=O)(=O)Nc3ccc(Cl)cc3C(=O)O)cc2)cc1
64.8 µM | NCc1cccc(NC(=O)[C@H](NS(=O)(=O)C2CCCCC2)c2ccc(OCc3ccccc3)cc2)c1
8.64 µM | CNC(=O)c1cc(CN)cc([C@@H]2C[C@H]2c2cc(Cl)cc(NC(=O)OCc3ccccc3)c2)c1
> 99.5 µM | C[C@@H](NC(=O)C1CCN(c2cccc(C(N)=O)n2)CC1)[C@H]1CCCNC1
> 99.5 µM | CCn1c(=O)c(N2CC[C@H](N3CCCS3(=O)=O)C2)nc2ccccc21
> 25 µM | NC(=O)N1CCc2ccc(NC(=O)c3cccc4c3CC(=O)N4)cc21
> 99.5 µM | CN1CCC(c2nc(C(F)(F)F)n3c2CN(c2cccc(C(N)=O)n2)CC3)CC1
> 99.5 µM | O=C(O)c1cc(Cl)ccc1S(=O)(=O)Nc1ccc(CCN2CCCC2)cc1
2.24 µM | O=C(Nc1ccc2c(c1)CNC2)c1cc(Cl)nc2[nH]ccc12
> 99.5 µM | O=c1oc2cccnc2n1CC=Cc1ccccc1
> 99.5 µM | O=C1CCc2cc(NC(=O)c3cc(Cl)cc4[nH]ncc34)ccc2N1
> 99.5 µM | NC[C@H]1C[C@@H](CNC(=O)c2cc(Cl)cc(NC(=O)OCc3ccccc3)c2)CCO1
0.014 µM and 0.013 µM and 0.01 µM | N#Cc1ccc(-c2nc3c(C(=O)Nc4ccc5c(c4)CNC5)cc(F)cc3[nH]2)cc1
> 25 µM | Cc1c(C(=O)Nc2cccc(-c3cncnc3O)c2)cc(C2CC2)n1C
> 99.5 µM | CCOc1cccc(N2CC[C@@H](CO)C2)c1
> 99.5 µM | CNC(=O)c1cc(Cl)ccc1NS(=O)(=O)c1cccc(Oc2ccccc2)c1

SMILES | IC50
CNc1nc2cc(-c3ccc4c(c3)C[C@H](N)C4)ccc2o1 | > 99.5 µM
